Source: patent US10167279B2 (NOVARTIS AG, priority 2014, dated 2019)

Molecular target: C-Raf FL (Homo sapiens (Human), UniProt P04049, Y340E/Y341E)
Assay: In vitro Raf activity determination (Alpha Screen, phospho-MEK), C-Raf FL (full length, Y340E/Y341E)
Type: biochemical
Details: ATP 1 μM; 60 min pre-incubation; 1 hour reaction; column head does not say FL or TR
In short: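 Sf9-expressed C-Raf incubated with biotinylated kinase-dead MEK1 (K97R) in 50 mM Tris pH 7.5, 15 mM MgCl2, 0.01% BSA, 1 mM DTT with compound, 60 min at room temperature. Phospho-MEK detected by anti-p-MEK AlphaScreen luminescence; IC50 by non-linear regression.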

C-Raf FL, sequence (P04049 whole entry Y340E/Y341E): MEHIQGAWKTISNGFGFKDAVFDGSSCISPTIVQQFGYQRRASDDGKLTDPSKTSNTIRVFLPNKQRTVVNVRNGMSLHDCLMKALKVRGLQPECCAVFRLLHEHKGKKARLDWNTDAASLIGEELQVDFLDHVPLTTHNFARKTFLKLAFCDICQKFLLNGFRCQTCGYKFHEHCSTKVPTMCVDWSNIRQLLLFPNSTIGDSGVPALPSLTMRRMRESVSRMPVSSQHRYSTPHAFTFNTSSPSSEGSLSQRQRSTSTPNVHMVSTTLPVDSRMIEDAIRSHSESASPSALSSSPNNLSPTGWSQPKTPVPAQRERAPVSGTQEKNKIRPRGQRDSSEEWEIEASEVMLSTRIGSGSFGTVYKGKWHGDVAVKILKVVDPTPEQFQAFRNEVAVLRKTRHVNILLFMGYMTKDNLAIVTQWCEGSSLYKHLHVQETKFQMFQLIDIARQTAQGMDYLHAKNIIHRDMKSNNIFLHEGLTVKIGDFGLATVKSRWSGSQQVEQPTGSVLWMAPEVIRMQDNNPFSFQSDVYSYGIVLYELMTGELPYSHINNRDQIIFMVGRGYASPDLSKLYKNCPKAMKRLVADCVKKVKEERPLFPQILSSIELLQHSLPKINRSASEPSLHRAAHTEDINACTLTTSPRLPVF
C-Raf FL, sequence (P63104 whole entry partner): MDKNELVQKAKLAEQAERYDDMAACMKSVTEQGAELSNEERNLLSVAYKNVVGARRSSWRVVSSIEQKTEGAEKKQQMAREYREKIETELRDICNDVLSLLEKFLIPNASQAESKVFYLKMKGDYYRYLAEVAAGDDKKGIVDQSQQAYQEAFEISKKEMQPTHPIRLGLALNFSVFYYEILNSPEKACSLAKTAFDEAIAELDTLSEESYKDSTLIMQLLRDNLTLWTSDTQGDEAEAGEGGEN

In order of rising IC50:
1. CCOc1nnc(-c2cc(NC(=O)c3cc(C(F)(F)F)ncn3)ccc2C)cc1C1CCOCC1 [Example 232]  30 pM
2. COCCOc1nnc(-c2cc(NC(=O)c3ccnc(C(F)(F)F)c3)ccc2C)cc1C1CCOCC1 [Example 315, N-(3-(6-(2-methoxyethoxy)-5-(tetrahydro-2H-pyran-4-yl)pyridazin-3-yl)-4-methylphenyl)-2-(trifluoromethyl) isonicotinamide]  100 pM
3. Cc1ccc(NC(=O)c2cccc(C(F)(F)F)c2)cc1-c1cc(C2CCOCC2)nc(N(CCO)CCO)c1 [Example 178]  136 pM
4. Cc1ccc(NC(=O)c2cc(C(F)(F)F)ccn2)cc1-c1cc2c(c(C3CCOCC3)c1)OC(C)(CO)C(=O)N2 (centres unmarked) [Example 202, N-(3-(2-(hydroxymethyl)-2-methyl-3-oxo-8-(tetrahydro-2H-pyran-4-yl)-3,4-dihydro-2H-benzo[b][1,4]oxazin-6-yl)-4-methylphenyl)-4-(trifluoromethyl) picolinamide]  300 pM
5. COC1(c2cc(-c3cc(NC(=O)c4ccnc(C(F)(F)F)c4)ccc3C)cc(OCCO)n2)COC1 [Example 157, N-(3-(2-(2-hydroxyethoxy)-6-(3-methoxyoxetan-3-yl)pyridin-4-yl)-4-methylphenyl)-2-(trifluoromethyl)isonicotin-amide]  300 pM
6. Cc1ccc(NC(=O)c2ccnc(C(F)(F)F)c2)cc1-c1cc2c(c(C3CCOCC3)c1)OC(C)(CO)C(=O)N2 (centres unmarked) [Example 200, N-(3-(2-(hydroxymethyl)-2-methyl-3-oxo-8-(tetrahydro-2H-pyran-4-yl)-3,4-dihydro-2H-benzo[b][1,4]oxazin-6-yl)-4-methylphenyl)-2-(trifluoromethyl) isonicotinamide]  500 pM
7. COC1(c2cc(-c3cc(NC(=O)c4cccc(C(F)(F)F)c4)cnc3C)cc(OCCO)n2)COC1 [Example 160, N-(2′-(2-hydroxyethoxy)-6′-(3-methoxyoxetan-3-yl)-2-methyl-[3,4′-bipyridin]-5-yl)-3-(trifluoromethyl)benzamide]  700 pM
8. Cc1ccc(NC(=O)c2ccnc(C(F)(F)F)c2)cc1-c1cc(OCCO)nc(C2CCOCC2O)c1 (centres unmarked) [Example 162, N-(3-(2-(2-hydroxyethoxy)-6-(3-hydroxytetrahydro-2H-pyran-4-yl)pyridin-4-yl)-4-methylphenyl)-2-(trifluoromethyl)isonicotinamide]  1000 pM
9. Cc1ccc(NC(=O)c2cc(C(F)(F)F)ccn2)cc1-c1cc2c(c(C3CCOCC3)c1)OC(C)(C)C(=O)N2 [Example 199, N-(3-(2,2-dimethyl-3-oxo-8-(tetrahydro-2H-pyran-4-yl)-3,4-dihydro-2H-benzo[b][1,4]oxazin-6-yl)-4-methylphenyl)-4-(trifluoromethyl) picolinamide]  1000 pM
10. CCOc1nnc(-c2cc(NC(=O)c3ccnc(C(C)(C)F)c3)cnc2C)cc1C1CCOCC1 [Example 233, N-(5-(6-ethoxy-5-(tetrahydro-2H-pyran-4-yl)pyridazin-3-yl)-6-methylpyridin-3-yl)-2-(2-fluoropropan-2-yl) isonicotinamide]  2000 pM
11. CCOc1ncc(-c2cc(NC(=O)c3ccnc(C(C)(C)C#N)c3)ccc2C)cc1C1(C#N)CCOC1 (centres unmarked) [Example 169, 2-(2-cyanopropan-2-yl)-N-(3-(5-(3-cyanotetrahydrofuran-3-yl)-6-ethoxypyridin-3-yl)-4-methylphenyl) isonicotinamide]  2000 pM
12. Cc1ccc(NC(=O)c2ccnc(C(F)(F)F)c2)cc1-c1cc(C2(F)COC2)cc(OCCO)n1 [Example 47, N-(3-(4-(3-fluorooxetan-3-yl)-6-(2-hydroxyethoxy)pyridin-2-yl)-4-methylphenyl)-2-(trifluoromethyl)isonicotin-amide]  4350 pM
13. CCOc1ncc(-c2cc(NC(=O)c3ccnc(C(C)(C)F)c3)cnc2C)cc1C1(CO)CCOC1 (centres unmarked) [Example 292, N-(6′-ethoxy-5′-(3-(hydroxymethyl)tetrahydrofuran-3-yl)-2-methyl-[3,3′-bipyridin]-5-yl)-2-(2-fluoropropan-2-yl)isonicotinamide]  9000 pM
14. Cc1ccc(NC(=O)C2CCNC(C(F)(F)F)C2)cc1-c1cc(C2CCOCC2)nc(N2CCC(C)(N)CC2)c1 (centres unmarked) [Example 320]  350000 pM
